Counter-ions that a name gives are not always drawn. Like-named read-outs stand apart in the source and are kept apart here.
Key:
[1] = 91-day oral study in dogs; format: in vivo
786-O cells [2] = format: cell-based; details: Homo sapiens, 786-0, 144 h; 6 days with drug, sulforhodamine B
Procedure: Testing of Neoplastic Cell Growth Inhibition of PDE10-Inhibiting Compounds on Renal Cell Carcinoma (786-O) Cells. […] After 24 hours, the media was removed, and the same media containing the drug was added to the cells (0.1% DMSO final concentration).

[3] = Acute toxicity study in rats; details: rat, in vivo
[4] = 91-day long-term safety assessment study in rats; format: in vivo
Excerpt: These changes were not associated with any gross clinical abnormality.

[5] = Seven-day dose-range finding study in rats; format: in vivo; details: seven days
renal cell carcinoma = test: Human clinical study in locally advanced or metastatic renal cell cancer; format: in vivo
Procedure: Patients were treated with 400 mg daily (200 mg twice daily) and continued at this dose throughout the study, provided no intolerable toxicity or disease progression occurred. Disease response was assessed by physical examination, chest x-ray and MRI or CT scan every eight weeks.
Nineteen patients with heavily pre-treated advanced, progressive renal cell carcinoma were entered into the study. […] The patients were on drug daily for a minimum of eight weeks.
The adverse events, which were reported (regardless of relationship), were of the nature and severity expected in this patient population.

PDE4 = test: PDE inhibition, PDE4 (similar protocols); format: biochemical
[6] = dog, in vivo
Procedure: (§3) Therefore, these dogs were subsequently administered seven consecutive doses of 1000 mg/kg/day.

PDE5 = biological target: T1, PDE5 (Homo sapiens, UniProt O76074); test: cGMP PDE inhibition, PDE5; format: biochemical
T1 construct: partially purified cGMP-specific PDE isolated from HT-29 cells; endogenous in cells; host or cells: HT-29 cells (partially purified enzyme)
Excerpt: Compounds of this invention are also PDE2 and PDE5 inhibitors as taught in part U.S. patent application Ser. No. 09/046,739 filed Mar. 24, 1998, now abandoned. Compounds can be tested for inhibitory effect on phosphodiesterase activity using either the enzyme isolated from any tumor cell line such as HT-29 or SW-480. […] (Thompson, W. J., Teraski, W. L., Epstein, P. M., Strada, S. J., Advances in Cyclic Nucleotide Research, 10:69-92, 1979, which is incorporated herein by reference). In brief, asolution of defined substrate ^3H-cGMP specific activity (0.2 μM; 100,000 cpm; containing 40 mM Tris-HCl (pH 8.0), 5 mM MgCl2 and 1 mg/ml BSA) is mixed with the drug to be tested in a total volume of 400μl. The mixture is incubated at 30° C. for 10 minutes with partially purified cGMP-specific PDE isolated from HT-29 cells. Reactions are terminated, for example, by boiling the reaction mixture for 75 seconds. After cooling on ice, 100 μl of 0.5 mg/ml snake venom (O. Hannah venom available from Sigma) is added and incubated for 10 min at 30° C. […] The amount of radioactivity in the breakthrough and the wash from the columns in then measured with a scintillation counter. The degree of PDE5 inhibition is determined by calculating the amount of radioactivity in drug-treated reactions and comparing against a control sample (a reaction mixture lacking the tested compound).

28-day study in rats = format: in vivo
Procedure: A 28-day study in rats was also carried out at 0, 50, 500 and 2000 mg/kg/day.

786-O cells [7] = test: Apoptosis on 786-O cells (Roche Cell Death Assay); format: cell-based, human; details: Homo sapiens, 786-0; 48 hours with drug; read-out: IC50 for induction of apoptosis in the 786-O cell line
Procedure: Testing of PDE10-Inhibiting Compounds for Apoptosis on Renal Carcinoma (786-O) Cells. […] After 24 hours, the media was removed and the same media containing the drug was added to the cells (0.1% DMSO final concentration). After 48 hours, apoptosis was detected using the Roche Cell Death Assay.

[8] = rat, in vivo
[9] = Acute and seven-dose toxicity in dogs (capsules); details: both, dog, in vivo, po, 1000 mg/kg
Procedure: as §3

[10] = Single, escalating dose normal human volunteer clinical trial; format: in vivo; details: normal human volunteers, oral single escalating dose, any dose (50 mg-700 TDD)
[11] = Phase I trial in patients with a range of solid tumors; format: in vivo
Procedure: Cycles were repeated without a treatment-free interval. Doses ranged from 100 to 800 mg/day.

PDE10 from 786-O = PDE10 from 786-O (Homo sapiens, UniProt Q9Y233); test: Inhibition and kinetics of PDE10 from 786-O (pooled fractions of the center peak); format: biochemical; details: IC50 on PDE10 from 786-O (inhibition of cGMP PDE activity), pooled center-peak fractions; FIG. 8, 9
Procedure: (§1) Fractions were pooled from a 786-O profile from the center peak.
as §1
(§2) Protein assays were determined using the Bio-Rad DC Protein Assay. A nonlinear regression to the Michalis-Menten equation in Prism was used to determine the Km and Vmax.
as §2

PDEI = test: PDE inhibition, PDEI (similar protocols); format: biochemical
[12] = 28 days, 50, 500 and 2000 mg/kg/day

PDE10 from 786-O, sequence (Q9Y233 290-1055 limits assumed): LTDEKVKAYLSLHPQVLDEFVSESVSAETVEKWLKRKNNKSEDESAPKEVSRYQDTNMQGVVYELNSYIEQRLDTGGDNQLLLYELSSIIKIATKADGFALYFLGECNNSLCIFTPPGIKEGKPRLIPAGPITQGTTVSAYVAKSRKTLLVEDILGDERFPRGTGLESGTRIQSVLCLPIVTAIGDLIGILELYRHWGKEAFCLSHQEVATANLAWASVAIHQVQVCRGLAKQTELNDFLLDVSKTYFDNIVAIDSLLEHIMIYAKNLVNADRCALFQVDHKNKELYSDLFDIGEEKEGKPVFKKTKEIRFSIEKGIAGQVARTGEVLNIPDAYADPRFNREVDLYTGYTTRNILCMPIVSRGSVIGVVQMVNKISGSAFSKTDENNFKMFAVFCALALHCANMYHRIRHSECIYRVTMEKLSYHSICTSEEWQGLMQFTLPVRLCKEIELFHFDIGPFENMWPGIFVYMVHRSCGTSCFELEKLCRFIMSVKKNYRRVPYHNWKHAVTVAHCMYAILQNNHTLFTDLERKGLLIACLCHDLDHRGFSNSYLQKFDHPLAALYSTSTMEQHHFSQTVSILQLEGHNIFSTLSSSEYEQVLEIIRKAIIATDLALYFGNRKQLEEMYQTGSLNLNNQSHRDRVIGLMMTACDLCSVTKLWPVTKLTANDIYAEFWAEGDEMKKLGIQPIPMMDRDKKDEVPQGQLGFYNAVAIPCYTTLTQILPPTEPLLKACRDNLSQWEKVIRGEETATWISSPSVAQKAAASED

## CC1=C(CC(=O)NCc2ccccc2)c2cc(F)ccc2C1=Cc1ccncc1 [Compound 38, (Z)-5-Fluoro-2-methyl-(4-pyridylidene)-3-(N-benzyl)indenylacetamide Hydrochloride]
[1]; 91 days
  Microscopic alterations (liver): no microscopic alterations
  Tolerability: well tolerated
[1]; 91 days, 150 and 300 mg/kg/day groups
  Feces: Orange discoloration of the feces
[1]; 91 days, highest dose group
  Body weights: Slightly lowered body weights
  Liver weights: increased liver weights
[1]; oral, 91 consecutive days, 50, 150 and 300 mg/kg/day
  Toxicological effects: no toxicological effects
786-O cells [2]
  IC50: 1.1 µM
[3]; ip, 1000 mg/kg
  LD50: > 1000 mg/kg
[3]; po
  LD50: > 2000 mg/kg
[4]; 91 days
  Clinical biochemistry and hematology: no changes
  Microscopic findings: slight hepatocellular hypertrophy at 200 and 500 mg/kg/day groups, follicular cell hypertrophy at 500 mg/kg/day and increase in accumulation of hyalin droplets in the kidneys at 200 and 500 mg/kg/day group
[4]; 91 days, males and females at 200 and 500 mg/kg/day
  Organ weights: dose-related trend to increased liver and thyroid/parathyroid weights
[4]; oral, 91 consecutive days, 50, 200 and 500 mg/kg/day
  Toxicological effects: did not produce any major toxicological effects
[5]; 50 mg/kg/day
  Signs of toxicity: no observable signs of toxicity
[5]; 500 mg/kg/day
  Treatment-related effects: an increase in absolute and relative liver weights in female rats
[5]; 2000 mg/kg/day
  Treatment-related effects: labored breathing and/or abnormal respiratory sounds, decreased weights gains and food consumption in male rats, and increased liver weights in female rats
[5]; any dose level (50, 500, 2000 mg/kg/day)
  Hematology, blood chemistry, microscopic pathology: No hematological or blood chemistry changes nor any microscopic pathology changes
Renal cell carcinoma; 400 mg daily, renal cell carcinoma patients
  Serious Adverse Events due to the drug: No Serious Adverse Event due to the drug was reported
Renal cell carcinoma; interim evaluation of 16 evaluable patients, 400 mg daily (200 mg twice daily), minimum of eight weeks
  Patients who achieved stable disease: six
PDE4
  IC50: 6 µM
[6]; 1000 mg/kg
  Signs of toxicity: no signs of toxicity
[6]; 1000 mg/kg/day
  Signs of drug-related effects: At no time in either dosing phase were any obvious signs of drug-related effects observed
PDE5
  IC50: 4 µM
28-day study in rats; 28 days
  Macroscopic tissue changes at necropsy: No macroscopic tissue changes
28-day study in rats; 28 days, 2000 mg/kg/day
  Liver weights: statistically significant increase
  Thyroid weights: statistically significant increases
28-day study in rats; [12]
  Body weight changes, ophthalmoscopic examinations, hematological and blood chemistry values, urinalysis: unremarkable
  Clinical observations: no abnormal clinical observations
28-day study in rats; 28 days, generally a small number of animals at 2000 mg/kg/day, one female at 500 mg/kg/day
  Histopathological evaluation of tissues: traces of follicular cell hypertrophy, increased numbers of mitotic figures (suggestive of possible cell proliferation) in the thyroid gland and mild centrilobular hypertrophy in the liver
28-day study in rats; 28 days, lower doses
  Slight liver and thyroid increases: not statistically significant
786-O cells [7]
  IC50: 1 µM
[8]; ip, 1000 mg/kg
  Body weight gain: reduced body weight gain
  Necropsy finding: mesenteric adhesions seen in some animals
[8]; po, 2000 mg/kg
  Body weight gains: slightly reduced
[9]
  LD50: > 1000 mg/kg
[10]
  Side effects: no significant side effects
[11]; 21 patients, orally twice daily for 28 consecutive days, 100 to 800 mg/day
  Tolerability of therapy: well tolerated overall
[11]; 100 to 800 mg/day
  Maximum tolerated dose: not reached
[11]; up to 800 mg TDD, orally, twice-daily schedule
  Toxicity: minimally toxic
PDE10 from 786-O
  IC50: 3.7 µM
PDEI
  IC50: 3 µM

Source: US6538029B1, “Methods for treatment of renal cell carcinoma” (Cell Pathways, priority 2002, dated 2003)
